{
  "source": "patent US11632963B2",
  "about": "“Tuber storage” (Arysta Lifescience Benelux Sprl, priority 2014, dated 2023)",
  "key": {"[1]": {"system": "Potatoes from the variety Bintje, Innovator and Nicola", "test": "Fresh sprout weight of stored potatoes treated by fogging (Example 7)", "format": "in vivo, Solanum tuberosum", "settings": "Treatment at 50 ml/ton, corresponding to 450 g limonene/ton or 450 ppm", "method": "Potatoes were treated with 100% orange oil every 3 weeks via application by cold fogging using a potato mist blower VEUGEN in the above part of a storage cell between bag fillings and the top of the cell.\nPotatoes from the variety Bintje, Innovator and Nicola were stored in a storage room and each storage room (trail number) was treated with a different product in the anti-sprouting treatment. BIO-024 stands for Orange oil, with at least 900 g limonene/1, BIOX M is a trade name of a mint oil based product that is commercially available as an anti-sprouting agent, Gro Stop fog is a trade name of a CIPC containing product for the treatment of sprouting of potatoes.\nAn overview of the fresh sprout weight and the weight loss of samples that were taken on 11 February, 11 March, 8 April and 6 May is given in Table 6. […] Storage was carried out from 11 October until 16 May the year after, all products were applied by fogging.\nFresh sprout weight was assessed by weighing all sprouts per sample. Sprout weight was calculated for a standard sized sample of 1.0 kg potatoes: Fresh sprout weight(g)=fresh sprout weight sample/(weight sample unloading−sprouts)"}, "[2]": {"system": "potatoes (Bintje and Innovator)", "test": "Tuber treatment in cabins, sprout formation (Example 2)", "format": "in vivo, Solanum tuberosum", "settings": "600 EC limonene composition, 90 ml/1000 kg then 30 or 90 ml/1000 kg every 3 weeks, fogging", "method": "In a second example, use of a 600 EC limonene composition according to example 1 the treatment of potatoes is illustrated.\nIn this example, 10 equal amounts of potatoes (20 kg Bintje and 20 kg Innovator) were treated in 5 different cabins. The first cabin acted as a control. No treating agent was applied in the first cabin.\nIn cabin 4, a composition according to example 1 was used, with limonene as active ingredient. The first application was done 2 weeks after harvesting at a concentration of 90 ml/1000 kg potatoes. After this application, the next applications were at a dose of 30 ml/1000 kg potatoes.\nIn cabin 5, the same composition as used in cabin 4 was used with 600 g/l limonene as active ingredient. The first application was done 2 weeks after harvesting at a concentration of 90 ml/1000 kg potatoes. Every 3 weeks the application was repeated at the same dose.\nFor all the cabins, the first treatment was on 22 October, 2 weeks after harvest. The potatoes were investigated for sprout formation at February 5, the next year, March 4, and April, 4. For each amount of potatoes the weight loss was determined, the sprout index was determined and the sprout weight was measured.\nThe sprout weight expressed in grams of the “Innovator”-variety potatoes is depicted in FIG. 3 for each cabin and at the 3 different times, corresponding to around 4, 5 and 6 months after harvest."}, "potatoes [3]": {"system": "potatoes", "settings": "WO 92/10934, cited from earlier work"}, "potatoes [4]": {"system": "potatoes", "settings": "45 g/ton at start and 15 g/ton every 20 days, after 5 months, WO 00/32063, cited from earlier work"}},
  "data": [
    {"smiles": "C=C(C)[C@H]1CC=C(C)CC1", "note": "[limonene]", "values": [
      {"measurement": "effectiveness to reach the levels of control obtainable by CIPC or mint oil", "setting": "[1]", "result": "not sufficiently effective"},
      {"measurement": "effectiveness as treatment agent on its own (sprout formation)", "setting": "[2]", "result": "sufficient effectiveness"},
      {"measurement": "influence on potato sprouting", "setting": "potatoes [3]; headspace concentration of 1.70 mg/L after 7 days", "result": "did not have an influence on potato sprouting"},
      {"measurement": "eyes with sprouts", "setting": "potatoes [3]; three unsprouted potatoes exposed to a 2 ml limonene soaked filter paper in a desiccator flask", "result": 0, "unit": "%"},
      {"measurement": "weight loss", "setting": "potatoes [4]; 60 wt % limonene composition, untreated control 5.4%", "result": 4.5, "unit": "%"},
      {"measurement": "sprout growth", "setting": "potatoes [4]; limonene as 60 wt % composition, untreated control 100%", "result": 96.8, "unit": "%"}
    ]}
  ]
}
